# Test results reported in patent publication US20070173478A1, “Compositions for the enhanced treatment of depression” (WWK TRUST, priority 2003, published 2007).
# System: chronic endogenous depression
# Test: Case #1: patient with chronic endogenous depression
# Type: in vivo, human
# Details: person
smiles,measurement,setting,value
CN(C)CC/C=C1\c2ccccc2CSc2ccccc21 [prothiaden],effect of previous treatment,previous treatment,relatively ineffective
same,side effects of previous treatment,previous treatment,complained of side effects
CNCCC(Oc1ccc(C(F)(F)F)cc1)c1ccccc1 (stereo not drawn) [fluoxetine],antidepressant effect of fluoxetine alone,"30 mg fluoxetine once daily, before the combination",requiring increasing doses to sustain antidepressant effects
